1 sequence from patent US7741287B2, “Peptides for the treatment of herpes virus infections” (IPF PharmaCeuticals GmbH, priority 2004, dated 2010) can be followed below.

Where no end group is shown, it is not given here.

This assay concerns HSV-2. Type of assay: cell-based, herpes simplex virus type 2 (HSV-2). The following applies: ELVIS cell infection assay; virus not given.

Consider “VCVLAHHFGKEF [VCVLAHHFGKEF (SEQ ID NO:2)]”, for which the “antiviral activity in cellular infection assay” value is “high activity”.
